17 molecules from US12643879B2, “Functionalized heterocyclic compounds as modulators of stimulator of interferon genes (STING)” (RYVU THERAPEUTICS S.A., priority 2019, dated 2026) can be followed below.

Structures can show the parent of a compound that is named as a salt. Where two headings read alike, the source gives them in different places. Bounds are passed on as bounds.

The target in one assay is human STING (Homo sapiens, UniProt Q86WV6). Put plainly: Fluorescence Thermal Shift assay (binding to STING). Conditions: STING 0.1 mg/mL, SyproOrange, 25 to 99° C. How it is done:
Compounds, constructs and conjugates of the present invention were tested for binding to human STING in Fluorescence Thermal Shift assay. STING was preincubated with the compounds for 20 minutes in 50 mM Hepes, 150 mM NaCl, pH 7.5 in 15 or 16 μl volume, following by adding 4 μl of SyproOrange dye dilution (ThermoFisher, cat no. S-6651). Final STING concentration was 0.1 mg/mL. Thermal unfolding was performed in Real-Time PCR QuantStudio 6 Flex System (Applied Biosystems), from 25 to 99° C., with continuous ramp mode and ramp rate 0.033° C./s. The data were analyzed using Protein Thermal Shift Software (ThermoFisher).

For assay [1], the system named is NF-κB pathway in THP-1 dual cells. The experiment in a line: THP-1 Dual reporter assay, NF-κB pathway (SEAP). Conditions: Homo sapiens, THP1-Dual, read-out: THP1 Dual EC50 (μM) NFkB. Format: cell-based. In outline:
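Readouts come from THP-1 dual cell supernatant taken 18 h after STING agonist addition. SEAP activity is developed in detection medium for 1–2 h at 37° C and read at 630/655 nm; luciferase is read by luminescence immediately after reagent addition.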

For assay [2], the system named is interferon regulatory factor (IRF) pathway in THP-1 dual cells. Put plainly: THP-1 Dual reporter assay, IRF pathway (luciferase). Format: cell-based. The conditions noted are these: Homo sapiens, THP1-Dual, read-out: THP1 Dual EC50 (μM) IRF. The gist of the method:
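After 18 h exposure of THP-1 dual cells to the STING agonist compounds, culture medium was collected. Part was mixed with luminescence reagent and read at once for IRF-driven luciferase; another part was incubated with SEAP detection medium for 1 or 2 hours at 37° C before absorbance at 630 or 655 nm.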
Background: In a reporter assay the amount or activity of a reporter protein is the signal.

The mark [3] stands for this setting: 18 h stimulation, absorbance at 630 or 655 nm.

Sequence of human STING (Q86WV6 whole entry H232R): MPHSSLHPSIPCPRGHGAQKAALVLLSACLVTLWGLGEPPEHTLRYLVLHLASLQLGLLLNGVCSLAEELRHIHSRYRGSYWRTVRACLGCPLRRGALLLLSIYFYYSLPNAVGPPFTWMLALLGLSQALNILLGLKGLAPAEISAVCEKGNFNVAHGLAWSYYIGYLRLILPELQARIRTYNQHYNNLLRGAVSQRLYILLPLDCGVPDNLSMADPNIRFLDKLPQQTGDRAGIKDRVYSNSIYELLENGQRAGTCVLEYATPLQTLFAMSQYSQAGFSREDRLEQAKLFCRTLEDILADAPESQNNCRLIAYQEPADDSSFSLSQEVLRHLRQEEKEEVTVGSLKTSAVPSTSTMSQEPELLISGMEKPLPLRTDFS

With `Cc1ccc(N2CCC[C@H](N(Cc3ccnc(C)c3)Cc3cn(C4CC4)c4cc(N5CCC[C@@H](O)C5)c(F)cc4c3=O)C2)cn1.Cl` [Example 28, 1-cyclopropyl-6-fluoro-7-[(3R)-3-hydroxypiperidin-1-yl]-3-({[(3S)-1-(6-methylpyridin-3-yl)piperidin-3-yl][(2-methylpyridin-4-yl)methyl]amino}methyl)-1,4-dihydroquinolin-4-one hydrochloride], the “hSTING FTS binding assay (ΔT C. °)” value at human STING was “+++ (+++=ΔTm ≥20° C.)”. In addition, the EC50 in assay [1] (setting [3]) was below 1 µM; in assay [2] (18 h stimulation, luminescence), below 1 µM.

For `Cc1ccc(N2CCC[C@H](N(Cc3ccnc(C)c3)Cc3cn(C4CC4)c4cc(N5CCC[C@H](N)C5)c(F)cc4c3=O)C2)cn1` [Example 16, 7-[(3S)-3-Aminopiperidin-1-yl]-1-cyclopropyl-6-fluoro-3-({[(3S)-1-(6-methylpyridin-3-yl)piperidin-3-yl][(2-methylpyridin-4-yl)methyl]amino}methyl)-1,4-dihydroquinolin-4-one], the “hSTING FTS binding assay (ΔT C. °)” value at human STING was “+++ (+++=ΔTm ≥20° C.)”. For the same molecule, the EC50 in assay [1] (setting [3]) was below 1 µM; in assay [2] (18 h stimulation, luminescence), below 1 µM.

Take `CNCCOc1cc2c(cc1F)c(=O)c(CN(Cc1ccnc(C)c1)[C@H]1CCCN(c3ccc(C)nc3)C1)cn2C1CC1.Cl` [Example 11, 1-Cyclopropyl-6-fluoro-7-[2-(methylamino)ethoxy]-3-({[(3S)-1-(6-methylpyridin-3-yl)piperidin-3-yl][(2-methylpyridin-4-yl)methyl]amino}methyl)-1,4-dihydroquinolin-4-one hydrochloride]: the “hSTING FTS binding assay (ΔT C. °)” value at human STING is “+++ (+++=ΔTm ≥20° C.)”. Further, the EC50 in assay [1] (setting [3]) is below 1 µM; in assay [2] (18 h stimulation, luminescence), below 1 µM.

For `Cc1cc(CN(Cc2cn(C3COC3)c3ccccc3c2=O)[C@H]2CCCN(c3ccc(N)nc3)C2)ccn1` [Example 35, 3-({[(3S)-1-(6-aminopyridin-3-yl)piperidin-3-yl][(2-methylpyridin-4-yl)methyl]amino}methyl)-1-(oxetan-3-yl)-1,4-dihydroquinolin-4-one], the “hSTING FTS binding assay (ΔT C. °)” value on human STING is given as “+++ (+++=ΔTm ≥20° C.)”. Also, the EC50 in assay [1] (setting [3]) is below 1 µM; in assay [2] (18 h stimulation, luminescence), below 1 µM.

As to `Cc1ccc(N2CCC[C@H](N(Cc3ccnc(C)c3)Cc3cn(C)c4cc(N5CCC(N)CC5)ccc4c3=O)C2)cn1.Cl` [Example 6, 7-(4-Aminopiperidin-1-yl)-1-methyl-3-({[(3S)-1-(6-methylpyridin-3-yl)piperidin-3-yl][(2-methylpyridin-4-yl)methyl]amino}methyl)-1,4-dihydroquinolin-4-one hydrochloride], the “hSTING FTS binding assay (ΔT C. °)” value on human STING is “++ (++=10<ΔTm <20° C.)”. Besides, the EC50 in assay [1] (setting [3]) was 1 to 10 µM; in assay [2] (18 h stimulation, luminescence), 1 to 10 µM.

Turning to `Cc1cc(CN(Cc2cn(C)c3ccccc3c2=O)[C@H]2CCCN(c3cccc(N)c3)C2)ccn1.Cl` [Example 1, 3-({[(3S)-1-(3-Aminophenyl)piperidin-3-yl][(2-methylpyridin-4-yl)methyl]amino}methyl)-1-methyl-1,4-dihydroquinolin-4-one hydrochloride], the “hSTING FTS binding assay (ΔT C. °)” value at human STING was “+ (+=ΔTm ≤10° C.)”. In addition, the EC50 in assay [1] (setting [3]) fell in the range of 1 to 10 µM; in assay [2] (18 h stimulation, luminescence), 1 to 10 µM.

`Cc1cc(CN(Cc2cn(C(C)C)c3cc(F)c(F)cc3c2=O)[C@H]2CCCN(c3ccc(N)nc3)C2)ccn1.Cl` [Example 24, 3-({[(3)-1-(6-aminopyridin-3-yl)piperidin-3-yl][(2-methylpyridin-4-yl)methyl]amino}methyl)-6,7-difluoro-1-(propan-2-yl)-1,4-dihydroquinolin-4-one hydrochloride]: on human STING, the “hSTING FTS binding assay (ΔT C. °)” value was “+++ (+++=ΔTm ≥20° C.)”.

Take `Cc1ccc(N2CCC[C@H](N(Cc3ccnc(C)c3)Cc3cn(C4CC4)c4cc(N5CCC(F)(CN)C5)c(F)cc4c3=O)C2)cn1` (stereo partly drawn) [Example 30, 7-[3-(aminomethyl)-3-fluoropyrrolidin-1-yl]-1-cyclopropyl-6-fluoro-3-({[(3S)-1-(6-methylpyridin-3-yl)piperidin-3-yl][(2-methylpyridin-4-yl)methyl]amino}methyl)-1,4-dihydroquinolin-4-one]: the “hSTING FTS binding assay (ΔT C. °)” value on human STING is “+++ (+++=ΔTm ≥20° C.)”. For the same molecule, the EC50 in assay [1] (setting [3]) was below 1 µM; in assay [2] (18 h stimulation, luminescence), below 1 µM.

Turning to `Cc1ccc(N2CCC[C@H](N(Cc3ccnc(C)c3)Cc3cn(C4CC4)c4cc(N5CC[C@H](N)C5)c(F)cc4c3=O)C2)cn1.Cl` [Example 13, 7-[(3S)-3-Aminopyrrolidin-1-yl]-1-cyclopropyl-6-fluoro-3-({[(3S)-1-(6-methylpyridin-3-yl)piperidin-3-yl][(2-methylpyridin-4-yl)methyl]amino}methyl)-1,4-dihydroquinolin-4-one hydrochloride], the “hSTING FTS binding assay (ΔT C. °)” value on human STING is listed as “+++ (+++=ΔTm ≥20° C.)”. Further, the EC50 was below 1 µM in assay [1] (setting [3]) and below 1 µM in assay [2] (18 h stimulation, luminescence).

Regarding `Cc1ccc(N2CCC[C@H](N(Cc3ccnc(C)c3)Cc3cn(C4CC4)c4nc(N5CC[C@@H](O)C5)c(F)cc4c3=O)C2)cn1.Cl` [Example 37, 1-cyclopropyl-6-fluoro-7-[(3R)-3-hydroxypyrrolidin-1-yl]-3-({[(3S)-1-(6-methylpyridin-3-yl)piperidin-3-yl][(2-methylpyridin-4-yl)methyl]amino}methyl)-1,4-dihydro-1,8-naphthyridin-4-one hydrochloride], the “hSTING FTS binding assay (ΔT C. °)” value on human STING is listed as “+++ (+++=ΔTm ≥20° C.)”. The EC50 in assay [1] (setting [3]) is below 1 µM; in assay [2] (18 h stimulation, luminescence), below 1 µM.

With `Cc1ccc(N2CCC[C@H](N(Cc3ccnc(C)c3)Cc3cn(C4CC4)c4cc(N5CCC[C@@H](N)C5)c(F)cc4c3=O)C2)cn1` [Example 17, 7-[(3R)-3-Aminopiperidin-1-yl]-1-cyclopropyl-6-fluoro-3-({[(3S)-1-(6-methylpyridin-3-yl)piperidin-3-yl][(2-methylpyridin-4-yl)methyl]amino}methyl)-1,4-dihydroquinolin-4-one], the “hSTING FTS binding assay (ΔT C. °)” value at human STING is “+++ (+++=ΔTm ≥20° C.)”. Moreover, the EC50 is below 1 µM in assay [1] (setting [3]) and below 1 µM in assay [2] (18 h stimulation, luminescence).

In the case of `Cc1cc(CN(Cc2cn(C)c3cc(Br)ccc3c2=O)[C@H]2CCCN(c3ccc(N)nc3)C2)ccn1.Cl` [Example 29, 3-({[(3S)-1-(6-aminopyridin-3-yl)piperidin-3-yl][(2-methylpyridin-4-yl)methyl]amino}methyl)-7-bromo-1-methyl-1,4-dihydroquinolin-4-one hydrochloride], at human STING, the “hSTING FTS binding assay (ΔT C. °)” value was “+++ (+++=ΔTm ≥20° C.)”. The EC50 was below 1 µM in assay [1] (setting [3]) and below 1 µM in assay [2] (18 h stimulation, luminescence).

With `Cc1cc(CN(Cc2cn(C)c3ccccc3c2=O)[C@H]2CCCN(c3ccc(CN)nc3)C2)ccn1.Cl` [Example 3, 3-({[(3S)-1-[6-(Aminomethyl)pyridin-3-yl]piperidin-3-yl][(2-methylpyridin-4-yl)methyl]amino}methyl)-1-methyl-1,4-dihydroquinolin-4-one hydrochloride], the “hSTING FTS binding assay (ΔT C. °)” value on human STING is “+ (+=ΔTm ≤10° C.)”. Also, the EC50 is 1 to 10 µM in assay [1] (setting [3]) and below 1 µM in assay [2] (18 h stimulation, luminescence).

Take `Cc1ccc(N2CCC[C@H](N(Cc3ccnc(C)c3)Cc3cn(C4CC4)c4cc(N5CC[C@@H](N)C(F)(F)C5)c(F)cc4c3=O)C2)cn1.Cl` (single isomer, unassigned) [Example 56]: at human STING, the “hSTING FTS binding assay (ΔT C. °)” value is listed as “+++ (+++=ΔTm ≥20° C.)”.

Take `Cc1ccc(N2CCC[C@H](N(Cc3ccnc(C)c3)Cc3cn(C4CC4)c4cc(NC(=O)CN)c(F)cc4c3=O)C2)cn1` [Example 25, 2-amino-N-[1-cyclopropyl-6-fluoro-3-({[(3S)-1-(6-methylpyridin-3-yl)piperidin-3-yl][(2-methylpyridin-4-yl)methyl]amino}methyl)-4-oxo-1,4-dihydroquinolin-7-yl]acetamide]: the “hSTING FTS binding assay (ΔT C. °)” value at human STING is “+++ (+++=ΔTm ≥20° C.)”.

With `COc1cc(CN(Cc2cn(C3CC3)c3cc(N4CC[C@@H](O)C4)c(F)cc3c2=O)[C@H]2CCCN(c3cccnc3)C2)ccn1` [Example 65, 1-cyclopropyl-6-fluoro-7-[(3R)-3-hydroxypyrrolidin-1-yl]-3-({[(2-methoxypyridin-4-yl)methyl][(3S)-1-(pyridin-3-yl)piperidin-3-yl]amino}methyl)-1,4-dihydroquinolin-4-one hydrochloride], the EC50 in assay [1] (18 h) and in assay [2] (18 h) was below 1 µM each time.

Consider `Cc1ccc(N2CCC[C@H](N(Cc3ccnc(C)c3)Cc3cn(C4CC4)c4cc(N5CC[C@@H](NC(=O)OCc6ccc(NC(=O)[C@H](CCCNC(N)=O)NC(=O)[C@@H](NC(=O)CCOCCOCCOCCN=[N+]=[N-])C(C)C)cc6)C5)c(F)cc4c3=O)C2)cn1` [Example 12A, {4-[(2S)-2-[(2S)-2-(3-{2-[2-(2-azidoethoxy)ethoxy]ethoxy}propanamido)-3-methyl-butanamido]-5-(carbamoylamino)pentanamido]phenyl}methyl N-[(3R)-1-[1-cyclopropyl-6-fluoro-3-({[(3S)-1-(6-methylpyridin-3-yl)piperidin-3-yl][(2-methylpyridin-4-yl)methyl]amino}methyl)-4-oxo-1,4-dihydroquinolin-7-yl]pyrrolidin-3-yl]carbamate], for which the EC50 in assay [1] (setting [3]) is above 10 µM; in assay [2] (18 h stimulation, luminescence) it was 1 to 10 µM.

Usually EC50 stands for the concentration that produces a half-maximal response.
